Here are results for eleven molecules from patent publication US20250313553A1, “ANNULATED 2-AMINO-3-CYANO THIOPHENES AND DERIVATIVES FOR THE TREATMENT OF CANCER” (Boehringer Ingelheim Int'l GmbH Corp., priority 2021, published 2025).

The target in one series is KRAS G12D Ba/F3 cells (Homo sapiens, UniProt P01116, G12D, cells depend on it). The series is described as follows: Ba/F3 proliferation assay, KRAS G12D. It is filed as cell-based. As to conditions: 72 h, AlamarBlue, read-out: KRAS G12D Ba/F3 IC50. Here is the method: (§1) To generate KRASG12-dependent Ba/F3 models, Ba/F3 cells are transduced with retroviruses containing vectors that harbor KRASG12 isoforms. Platinum-E cells (Cell Biolabs) are used for retrovirus packaging. Retrovirus is added to Ba/F3 cells. To ensure infection, 4 μg/mL polybrene is added and cells are spinfected. […] Cells with an infection efficiency of 10% to 20% are further cultivated and puromycin selection with 1 μg/mL is initiated. As a control, parental Ba/F3 cells are used to show selection status. Selection is considered successful when parental Ba/F3 cells cultures died. To evaluate the transforming potential of KRASG12 mutations, the growth medium is no longer supplemented with IL-3. Ba/F3 cells harboring the empty vector are used as a control. Approximately ten days before conducting the experiments, puromycin is left out.
(§2) All treatments are performed in technical duplicates. […] AlamarBlue™ (ThermoFisher), a viability stain, is added and fluorescence measured in the PerkinElmer Envision HTS Multilabel Reader. The raw data are imported into and analyzed with the Boehringer Ingelheim proprietary software MegaLab (curve fitting based on the program PRISM, GraphPad Inc.).
A general note: Alamar Blue is a resazurin reagent that responds to reducing activity.

A further series deals with KRAS G12C Ba/F3 cells (Homo sapiens, UniProt P01116, G12C, cells depend on it). The series is described as follows: Ba/F3 proliferation assay, KRAS G12C. Conditions: 72 h, AlamarBlue, read-out: KRAS G12C Ba/F3 IC50. Format: cell-based. Here is the method:
as §1, §2

Another series deals with KRAS G12V Ba/F3 cells (Homo sapiens, UniProt P01116, G12V, cells depend on it). Kind of series: Ba/F3 proliferation assay, KRAS G12V. It is filed as cell-based. As to conditions: 72 h, AlamarBlue, read-out: KRAS G12V Ba/F3 IC50. Here is the method:
as §1, §2

In series [1] the test system is ERK phosphorylation in NCI-H358 (KRAS G12C). Kind of series: ERK phosphorylation assay (assay 1, NCI-H358). Conditions: Homo sapiens; NCI-H358, assay 1, 1 h incubation; read-out: IC50 H358 pERK. Format: cell-based. Here is the method:
Low IC50 values in this assay setting are indicative of high potency of the compounds according to the invention. […]
The cells are incubated for 1 h at room temperature and then incubated overnight in an incubator at 37° C. and 5% CO2 in a humidified atmosphere. 60 nL compound solution (10 mM DMSO stock solution) is then added using a Labcyte Echo 550 device. […] After 20 min of incubation at room temperature with shaking, 6 μL of each lysate sample is transferred to a 384-well Proxiplate and analyzed for pERK (Thr202/Tyr204) with the AlphaLISA SureFire Ultra pERK1/2 (Thr202/Tyr204) Assay Kit. 3 μL Acceptor Mix and 3 μL Donor Mix are added under subdued light and incubated for 2 h at room temperature in the dark, before the signal is measured on a PerkinElmer Envision HTS Multilabel Reader. The raw data are imported into and analyzed with the Boehringer Ingelheim proprietary software MegaLab (curve fitting based on the program PRISM, GraphPad Inc.).

Series [2] is described as follows: Metabolic (microsomal) stability assay, HLM. It is filed as in vitro ADME. As to conditions: human liver microsomes, 1 μM, predicted clearance as percent of liver blood flow. Here is the method:
The metabolic degradation of the test compound is assayed at 37° C. with pooled liver microsomes (mouse (MLM), rat (RLM) or human (HLM)). The final incubation volume of 48 μL per time point contains TRIS buffer (pH 7.5; 0.1 M), magnesium chloride (6.5 mM), microsomal protein (0.5 mg/mL for mouse/rat, 1 mg/mL for human specimens) and the test compound at a final concentration of 1 μM. Following a short preincubation period at 37° C., the reactions are initiated by addition of 12 μL beta-nicotinamide adenine dinucleotide phosphate, reduced form (NADPH, 10 mM) and terminated by transferring an aliquot into solvent after different time points (0, 5, 15, 30, 60 min). Additionally, the NADPH-independent degradation is monitored in incubations without NADPH, terminated at the last time point by addition of acetonitrile. The quenched incubations are pelleted by centrifugation (4,000 rpm, 15 min). An aliquot of the supernatant is assayed by LC-MS/MS to quantify the concentration of parent compound in the individual samples.
In vitro intrinsic clearance (CLint, in vitro) is calculated from the time course of the disappearance of the test drug during the microsomal incubation. Each plot is fitted to the first-order elimination rate constant as C(t)=C0*exp(−ke*t), where C(t) and C0 are the concentration of unchanged test drug at incubation time t and that at preincubation and ke is the disappearance rate constant of the unchanged drug. Subsequently, CLint, in vitro (μL min^−1·amount protein) values are converted to predicted CLint, in vivo (mL min^−1·kg^−1) from incubation parameters according to the equation CLint, in vivo=CLint, in vitro×(incubation volume (ml)/amount protein (mg))×(amount protein (mg)/g liver tissue)×(liver weight/body wt.). For better across species comparison the predicted clearance is expressed as percent of the liver blood flow [% QH](mL min^−1·kg^−1) in the individual species. In general, high stability (corresponding to low % QH) of the compounds across species is desired.

In another series the target is T1, CYP3A4 (Homo sapiens, UniProt P08684).
T1 construct: assayed in human liver microsomes (0.02 mg/mL) with midazolam (15 μM) as a substrate; from tissue; host or cells: human liver microsomes
The series is described as follows: Mechanism based inhibition of CYP3A4 assay (MBI 3A4). As to conditions: 25 uM, hydroxy-midazolam formation after 30 min preincubation relative to 0 min. It is filed as in vitro ADME. Here is the method: The time dependent inhibition towards CYP3A4 is assayed in human liver microsomes (0.02 mg/mL) with midazolam (15 μM) as a substrate. The test compounds and water control (wells w/o test compound) are preincubated in presence of NADPH (1 mM) with human liver microsomes (0.2 mg/mL) at a concentration of 25 uM for 0 min and 30 min. After preincubation, the incubate is diluted 1:10 and the substrate midazolam is added for the main incubation (15 min). The main incubation is quenched with acetonitrile and the formation of hydroxy-midazolam is quantified via LC/MS-MS. The formation of hydroxy-midazolam from the 30 min preincubation relative to the formation from the 0 min preincubation is used as a readout. Values of less than 100% mean that the substrate midazolam is metabolized to a lower extent upon 30 min preincubation compared to 0 min preincubation. In general low effects upon 30 min preincubation are desired (corresponding to values close to 100%/not different to the values determined with water control).

Each structure is given as a SMILES string. pIC50: −log10 of the molar value.

T1 sequence (P08684 whole entry): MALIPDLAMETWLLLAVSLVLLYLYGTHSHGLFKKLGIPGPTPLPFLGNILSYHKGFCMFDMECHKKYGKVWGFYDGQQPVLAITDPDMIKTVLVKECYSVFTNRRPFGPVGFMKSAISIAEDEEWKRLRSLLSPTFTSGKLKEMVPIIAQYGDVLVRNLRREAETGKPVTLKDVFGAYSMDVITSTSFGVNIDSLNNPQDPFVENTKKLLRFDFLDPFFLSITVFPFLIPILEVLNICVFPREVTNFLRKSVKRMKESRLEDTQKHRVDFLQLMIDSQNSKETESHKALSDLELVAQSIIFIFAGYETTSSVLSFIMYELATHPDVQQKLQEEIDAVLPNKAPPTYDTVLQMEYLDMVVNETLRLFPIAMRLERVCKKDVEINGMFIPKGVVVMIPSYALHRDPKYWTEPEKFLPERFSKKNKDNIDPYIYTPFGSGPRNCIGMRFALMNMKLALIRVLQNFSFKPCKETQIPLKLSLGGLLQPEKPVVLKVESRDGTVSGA
KRAS G12C Ba/F3 cells, sequence (P01116 whole entry G12C): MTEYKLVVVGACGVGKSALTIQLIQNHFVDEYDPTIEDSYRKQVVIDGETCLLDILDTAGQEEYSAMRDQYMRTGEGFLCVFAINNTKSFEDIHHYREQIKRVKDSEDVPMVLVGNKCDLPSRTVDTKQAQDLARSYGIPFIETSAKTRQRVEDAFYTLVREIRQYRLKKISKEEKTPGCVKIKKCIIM
KRAS G12V Ba/F3 cells, sequence (P01116 whole entry G12V): as the sequence (P01116 whole entry G12C) above, with C12V counted along it
KRAS G12D Ba/F3 cells, sequence (P01116 whole entry G12D, canonical isoform): as the sequence (P01116 whole entry G12C) above, with C12D counted along it

As for `C[C@H]1CN(C)CCN1c1cccc(-c2noc([C@@]3(C)CCCc4sc(N)c(C#N)c43)n2)n1` [Example V-1], the GI50 at KRAS G12D Ba/F3 cells was found to be 961 nM; on KRAS G12C Ba/F3 cells it was 1270 nM; at KRAS G12V Ba/F3 cells it was 1440 nM. Further, in series [1], the pIC50 (in general, the negative decadic logarithm of the IC50, by convention in mol/L) is 6.60. In addition, the “HLM QH” value in series [2] is listed as 93%. For the same molecule, the “MBI 3A4” value at CYP3A4 is 65%.
Regarding `COCCCN1CCCN(c2nccc(-c3noc([C@@]4(C)CCCc5sc(N)c(C#N)c54)n3)n2)[C@@H](C)C1` [Example V-2], the GI50 at KRAS G12D Ba/F3 cells turned out to be 256 nM; on KRAS G12C Ba/F3 cells, 371 nM; on KRAS G12V Ba/F3 cells it was 917 nM. The pIC50 in series [1] was 7.64. The “HLM QH” value in series [2] was >95%.
As for `C[C@H]1CNCCN1c1nccc(-c2noc([C@@]3(C)CCCc4sc(N)c(C#N)c43)n2)n1` [Example V-4], the GI50 at KRAS G12D Ba/F3 cells turned out to be 823 nM; on KRAS G12C Ba/F3 cells, 831 nM; at KRAS G12V Ba/F3 cells, 1080 nM. Also, in series [1], the pIC50 was 6.89. Moreover, the “HLM QH” value in series [2] is recorded as 83%. Besides, the “MBI 3A4” value at CYP3A4 amounted to 75%.
Consider `C[C@H]1CN(C)CCCN1c1nccc(-c2noc([C@@]3(C)CCCc4sc(N)c(C#N)c43)n2)n1` [Example V-5], for which the results for the GI50 on KRAS G12D Ba/F3 cells, on KRAS G12C Ba/F3 cells and on KRAS G12V Ba/F3 cells were 293 nM, 493 nM and 640 nM, respectively. Further, the pIC50 in series [1] is 7.42. The “HLM QH” value in series [2] is given as 94%. For the same molecule, on CYP3A4, the “MBI 3A4” value is reported as 55%.
As to `C[C@H]1CNCCCN1c1nccc(-c2noc([C@@]3(C)CCCc4sc(N)c(C#N)c43)n2)n1` [Example V-6], the figures for the GI50 on KRAS G12D Ba/F3 cells, at KRAS G12C Ba/F3 cells and on KRAS G12V Ba/F3 cells were 801 nM, 811 nM and 1070 nM, respectively. Also, the pIC50 in series [1] is 7.12. The “HLM QH” value in series [2] is listed as 77%.
With `C[C@H]1CN(C)CCN1c1nccc(-c2noc([C@@]3(C)CCCc4sc(N)c(C#N)c43)n2)n1` [Example V-7], the GI50 at KRAS G12D Ba/F3 cells was found to be 1090 nM; at KRAS G12C Ba/F3 cells it was 1240 nM; on KRAS G12V Ba/F3 cells, 1680 nM. Further, in series [1], the pIC50 is 6.86. Further, the “HLM QH” value in series [2] is on record as 95%. For the same molecule, the “MBI 3A4” value on CYP3A4 stood at 57%.
As for `C[C@H](Oc1cccc(-c2noc([C@@]3(C)CCCc4sc(N)c(C#N)c43)n2)n1)[C@@H]1CCCN1C` [Example V-8], the GI50 on KRAS G12D Ba/F3 cells turned out to be 390 nM; at KRAS G12C Ba/F3 cells, 481 nM; at KRAS G12V Ba/F3 cells, 443 nM. Moreover, the pIC50 in series [1] is 7.26. Moreover, the “HLM QH” value in series [2] was >88%.
Turning to `CC(C)N1CCCN(c2nccc(-c3noc([C@@]4(C)CCCc5sc(N)c(C#N)c54)n3)n2)[C@@H](C)C1` [Example V-9], the GI50 on KRAS G12D Ba/F3 cells was found to be 51 nM; at KRAS G12C Ba/F3 cells, 64 nM; at KRAS G12V Ba/F3 cells it was 76 nM. The pIC50 in series [1] is 7.92. Also, in series [2], the “HLM QH” value is >88%. Besides, the “MBI 3A4” value on CYP3A4 is reported as 49%.
With `C[C@H](Oc1nccc(-c2noc([C@@]3(C)CCCc4sc(N)c(C#N)c43)n2)n1)[C@@H]1CCCN1C` [Example V-10], the GI50 amounted to 214 nM on KRAS G12D Ba/F3 cells, 291 nM on KRAS G12C Ba/F3 cells and 361 nM at KRAS G12V Ba/F3 cells. Moreover, in series [1], the pIC50 is 7.92. Besides, in series [2], the “HLM QH” value is 87%. In addition, the “MBI 3A4” value on CYP3A4 came out at 65%.
As to `C[C@H](Oc1ccnc(-c2noc([C@@]3(C)CCCc4sc(N)c(C#N)c43)n2)n1)[C@@H]1CCCN1C` [Example V-11], in series [1], the pIC50 was 8.15. Further, in series [2], the “HLM QH” value is on record as 81%.
Consider `C[C@H]1CN(C)CCN1c1nccc(-c2cc([C@@]3(C)CCCc4sc(N)c(C#N)c43)on2)n1` [Example V-27], for which the GI50 at KRAS G12D Ba/F3 cells is 525 nM; on KRAS G12C Ba/F3 cells, 1430 nM; at KRAS G12V Ba/F3 cells, 1690 nM. Moreover, the “HLM QH” value in series [2] is recorded as >88%. Further, at CYP3A4, the “MBI 3A4” value was determined as 71%.
